Like-named read-outs stand apart in the source and are kept apart here.
What was measured:
A549 cells = assay: Anti-proliferative SRB assay, A549 cells; assay type: cell-based
Protocol: A549 cells were grown in RPMI-1640 supplemented with 10% FBS, 100 units/mL of penicillin, 100 μg/mL of streptomycin, and 2 mM L-glutamine. All cells were grown in a humidified atmosphere at 37° C. and 5% CO2. Growth inhibition was evaluated by the SRB assay^22. Cells were seeded in 96-well plates at 5000 cells per well in 100 μL of media and incubated at 37° C. for 24 hours. Cells were then treated with 0-100 μM of compounds at 37° C. for 48 hours. Cells were fixed with 50 μL cold 50% TCA, incubated at 4° C. for 1 hour, and washed 5 times with tap water. The 96-well plates were allowed to air dry and 100 μL 0.4% sulforhodamine B (SRB) in 1% acetic acid was added to each well. After 10 minutes, the unbound SRB was washed away with 1% acetic acid and the plates were dried. Protein-bound dye was solubilized by addition of 200 μL 10 mM Tris buffer and subsequent shaking at RT for 10 minutes. The absorbance of each well was measured at 490 nm by a plate reader. Percent cell survival was calculated for each concentration by the ratio of the measured absorbance to the absorbance of the untreated cells. Curve fitting was performed using Prism 4.0a software. IC50 is the 50% inhibition of cell mass without subtraction of the resistant cell population.

physchem = assay type: physicochemical; conditions: for half-life / half-life at 1.5 μM: buffer
Protocol: The stability of compounds of the invention was obtained by the following method. […] The solutions were incubated at 37° C.
Stability data was fit to equation 1, which illustrates our treatment of the data for 2a ([…]) as shown in FIG. 2 with first order decay constants (kFOD) given in Table 1.

HeLa cells = assay: Anti-proliferative assay, HeLa cells; assay type: cell-based
[1] = cited from earlier work
[2] = Formation of wortmannin from WmC20 conjugates monitored by HPLC; conditions: PBS pH 6.8, 37° C.
Protocol: The solutions were incubated in water bath at 37° C. and were analyzed at different time points with HPLC by injecting the solution (10 μL) together with 1 μL internal standard solution (containing 1 μg methyl 4-hydroxybezoate). The initial time point (0 hr) was taken before putting the tube in the water bath. HPLC gradients were adjusted to produce baseline separations. Before the injection, the samples were vortexed briefly and then spun down. Data using this method appear in FIG. 6.
Compounds (1.8 mg) and 4b (1.3 mg) (examples were weighted into the 1.5 mL tubes and dissolved in PBS buffer (pH 6.8, 400 μL). The solutions were incubated at 37° C. At different time point 20 μL solution was mixed with 1 μL internal standard solution in DMSO (containing 1 μg methyl 4-hydroxybenzoate) and analyzed by HPLC. The initial time point (0 hr) was taken before putting the tube in the water bath. Before the injection, the samples were vortexed briefly and then spun down.
The following HPLC methods were employed. HPLC (Varian Prostar 210 with a variable wavelength PDA 330 detector) employed reverse phase C18 columns (VYDAC, Cat.#: 218TP 1022 for synthesis; Varian, Cat. #: R0086200C5 for analysis) with water (Millipore, containing 0.1% trifloroacetic acid,) (buffer A) and acetonitrile (containing 20% buffer A) (buffer B) as elution buffer. System 1: buffer A/buffer B (80:20) isocratic for 5 minutes, linear gradient to buffer A/buffer B (20:80) over 40 minutes, then the gradient back to 80:20 in 5 minutes and isocratic for 5 minutes, flow: 4.9 ml/min, λmax: 418 nm (used for purification of 2a); System 2: buffer A/buffer B (80:20) isocratic for 5 minutes, linear gradient to buffer A (buffer B (20:80) over 25 minutes and then isocratic for 5 minutes, then the gradient back to 80:20 in 5 minutes and isocratic for 5 minutes, flow: 6.0 mi/min, λmax: 408 nm (used for purification of 2b); System 3: buffer A/buffer B (70:30) linear gradient to buffer A/buffer B (20:80) over 15 minutes, then gradient back to 70:30 in 3 minutes and isocratic for another 5 minutes, flow: 1.0 ml/min, λmax: 258 nm (System 4: buffer A/buffer B (99:1) linear gradient to buffer A/buffer B (40:60) over 46 minutes, then gradient back to […] in 5 minutes and isocratic for another 5 minutes, flow: 1.0 ml/min, λmax: 250 nm).

PI3K = assay: Inhibition of PI3K enzyme activity (32P ATP lipid phosphorylation, TLC); assay type: biochemical; conditions: compounds incubated 3 hours at 37° C. in PBS pH 6.8, then 30 minute PI3K incubation; read-out: Bioassay: PI3K IC50
Protocol: We incubated compounds for three hours at 37° C. in PBS, pH 6.8, followed a 30 minute incubation for PI3K activity using the assay system previously described which involves lipid phosphorylation by ^32P labeled ATP and thin layer chromatography, (see Yuan et al., Bioconjug. Chem. 16:669 (2005)).

[3] = Homo sapiens, A549, 48 hours treatment
[4] = RPM tissue culture medium, data from Holleran et al.

COCC1OC(=O)C(=CN(C)CCCCCC(=O)O)C2=C(O)C(=O)C3=C(C(OC(C)=O)CC4(C)C(=O)CCC34)C21C (centres unmarked) [Example 1, wortmannin C20-N(Me)-hexanoic acid]
IC50 (A549 cells; [3]): 3.11 ± 0.17 µM
half-life (physchem; pH 6.8, Half Life): 8.7 h
half-life at 1.5 μM (physchem; pH 6.8, Half Life): 10.7 h
IC50 (HeLa cells; Homo sapiens, HeLa): 10.9 ± 0.2 µM

COCC1OC(=O)C(=CNCCCCCC(=O)O)C2=C(O)C(=O)C3=C(C(OC(C)=O)CC4(C)C(=O)CCC34)C21C (centres unmarked) [Example 2, wortmannin C20-NH-hexanoic acid]
IC50 (A549 cells; [3]): 45.8 ± 0.3 µM
half-life (physchem; pH 6.8, Half Life): 131 h
half-life at 1.5 μM (physchem; pH 6.8, Half Life): 223 h
IC50 (HeLa cells; Homo sapiens, HeLa): 63.8 ± 0.6 µM

COC[C@H]1OC(=O)c2coc3c2[C@@]1(C)C1=C(C3=O)[C@@H]2CCC(=O)[C@@]2(C)C[C@H]1OC(C)=O [wortmannin]
IC50 (A549 cells; [3]): 21.1 ± 0.5 µM
KFOD (95% confidence intervals) (physchem; PBS pH 6.8, 37° C.): 0.012 (0.0080-0.016) hr^−1
KFOD (95% confidence intervals) (physchem; PBS, 0.065 mM BSA, 37° C.): 0.18 (0.16-0.20) hr^−1
KFOD (95% confidence intervals) (physchem; PBS, 10 mM NAcLys, 37° C.): 0.30 (0.23-0.38) hr^−1
KFOD (95% confidence intervals) (physchem; PBS, 10 mM Proline, 37° C.): 1.87 (0.62-3.13) hr^−1
half-life (physchem; pH 6.8, Half Life): 57.8 h
half-life at 2.26 mM (physchem; pH 6.8, Half Life): 3.85 h
KFOD ([1]; MEM tissue culture medium, data from Holleran et al.): 5.04 h⁻¹
half-lives in RPM and MEM tissue culture media ([1]; RPM and MEM, Holleran et al.): about 10 minutes
Half Life [1, 4]: 0.172 h
KFOD [1, 4]: 4.02 h⁻¹
half-life in tissue culture media ([1]; tissue culture media, Holleran et al.): 8 to 13 min
IC50 (HeLa cells; Homo sapiens, HeLa): 41 ± 0.9 µM

Wm-N(Me)Hexanoate-BSA conjugate [Example 12]
K1 (wortmannin generation, fit to Equation 2) [2]: 0.190 (0.128-0.253) hr^−1
K2 (wortmannin degradation, fit to Equation 2) [2]: 0.905 (0.707-1.103) hr^−1
IC50 (PI3K): 0.0148 ± 0.0011 µM

WmC2O-N(Me)-hexanoate-Bead [Example 16]
K1 (wortmannin generation, fit to Equation 2) [2]: 0.308 (0.124-0.492) hr^−1
K2 (wortmannin degradation, fit to Equation 2) [2]: 0.148 (0.076-0.220) hr^−1

WmC20-N(H)-hexanoate-dextran [Example 18]
IC50 (A549 cells; 48 hours treatment): 64.7 ± 1.2 µM
IC50 (HeLa cells): 58 ± 0.6 µM

WmC20-N(Me)-hexanoate-IgG [Example 14]
K1 (wortmannin generation, fit to Equation 2) [2]: 0.024 (0.013-0.034) hr^−1
K2 (wortmannin degradation, fit to Equation 2) [2]: 0.282 (0.166-0.398) hr^−1
IC50 (PI3K): 0.13 µM

WmC20-N(Me)-hexanoate-dextran [Example 17]
IC50 (A549 cells; 48 hours treatment): 3.96 ± 0.23 µM
IC50 (HeLa cells): 13.3 ± 0.4 µM

WmC20-NH-hexanoate-BSA conjugate [Example 13]
IC50 (PI3K): > 1 µM

WmC20-NH-hexanoate-IgG [Example 15]
IC50 (PI3K): > 1 µM

— patent publication US20090324489A1 (priority 2005, published 2009)
